Entries after “also recorded” stand apart in the source; their conditions may differ.

One series deals with biotinylated human D-SDF-1. Kind of series: Competitive pull-down binding assay. To be noted: aptamer level; reference 192-A10-001. The protocol:
In order to compare different D-SDF-1 binding aptamers, a competitive ranking assay was performed. For this purpose the most affine aptamer available was radioactively labeled (see above) and served as reference. […] An excess of de- and renatured non-labeled D-RNA aptamer variants was added to different concentrations (e.g. 2, 10, and 50 nM) with the labeled reference aptamer to parallel binding reactions. The aptamers to be tested competed with the reference aptamer for target binding, thus decreasing the binding signal in dependence of their binding characteristics.
For “AGCGUGAAAGUAACACGUAAAAUGAAAGGUAACCACGCU (Made as D-RNA aptamer and L-RNA Spiegelmer, tested form not given here, further chemistry not given here) [191-A6]”, the “binding affinity in competitive pull-down binding assay vs. 192-A10-001” value is “Weaker binding affinity”.

“AGCGUGGUGUGAUCUAGAUGUAAUGGCUGAUCCUAGUCAGGUGCGCU (chemistry not fully specified) [193-F2-001]”: the “binding affinity in competitive pull-down binding assay vs. 192-A10-001” value is reported as “superior binding”.

For “GCUGUGAAAGUAACAUGUCAAUGAAAGGUAGCCGCAGC (aptamer; Made as D-RNA aptamer and L-RNA Spiegelmer, tested form not given here, further chemistry not given here) [192-H9]”, the “binding affinity in competitive pull-down binding assay vs. 192-A10-001” value is “much weaker binding affinity”.

For “GCUGUGAAAGUAACACGUCAAUGAAAGGUAACCACAGC (aptamer; Made as D-RNA aptamer and L-RNA Spiegelmer, tested form not given here, further chemistry not given here) [192-B11]”, the “binding affinity in competitive pull-down binding assay vs. 192-A10-001” value is given as “equal binding affinities; also recorded: equal binding affinity”.

For “GUGUUGCGGAGGUUAGGGCUAGAAGUCGGUCAGCAGCAC (chemistry not given here) [197-H1]”, the “binding affinity in competitive pull-down binding assay vs. 192-A10-001” value is reported as “weaker binding affinities”.

Regarding “GCAGUGAAAGUAACAUGUCAAUGAAAGGUAACCACAGC (aptamer; Made as D-RNA aptamer and L-RNA Spiegelmer, tested form not given here, further chemistry not given here) [192-D11]”, the “binding affinity in competitive pull-down binding assay vs. 192-A10-001” value is listed as “Weaker binding affinity”.

With “GCUAUGAAAGUAACAUGUCAAUGAAAGGUAACCAUAGC (aptamer; Made as D-RNA aptamer and L-RNA Spiegelmer, tested form not given here, further chemistry not given here) [192-H11]”, the “binding affinity in competitive pull-down binding assay vs. 192-A10-001” value was “Weaker binding affinity”.

For the substance “GUGCUGCCGGGGUUAGGGCUAA-AGUCGGCCGACAGCAC (GUGCUGCCGGGGUUAGGGCUAAAGUCGGCCGACAGCAC; chemistry not given here) [197-D1]”, the “binding affinity in competitive pull-down binding assay vs. 192-A10-001” value is listed as “Much weaker binding affinity”.

For “GUGUUCCCGGGGUUAGGGCUUGAAGUCGGCCGGCAGCAC (aptamer; chemistry not fully specified) [197-B1]”, the “binding affinity in competitive pull-down binding assay vs. 192-A10-001” value is given as “Much weaker binding affinity”.

Regarding “AGCGUGGUGUGAUCUAGAUGUAGUGGCUGAUCCUAGUCAGGUACGCU (chemistry not fully specified) [193-C2-001]”, the “binding affinity in competitive pull-down binding assay vs. 192-A10-001” value was “superior binding”.

Take “GUGCUGUGGGGGUCAGGGCUAGAAGUCGGCCUGCAGCAC (chemistry not given here) [197-D2]”: the “binding affinity in competitive pull-down binding assay vs. 192-A10-001” value is reported as “Much weaker binding affinity”.

Take “AGCGUGAAGGGGUUAGGGCUCGAAGUCGGCUGACACGCU (Made as D-RNA aptamer and L-RNA Spiegelmer, tested form not given here, further chemistry not given here) [191-A5]”: the “binding affinity in competitive pull-down binding assay vs. 192-A10-001” value is “Much weaker binding affinity”.

The same series, now with this note: compared with 190-A3-001.
Regarding “GGGGUUAGGGCUUAAAGUCGGCUGAUUCU (Made as D-RNA aptamer and L-RNA Spiegelmer, tested form not given here, further chemistry not given here) [190-A3-007]”, the “binding affinity of derivatives of 190-A3-001” value is on record as “very strong reduction of binding affinity”.

The same series, now with this note: reference 191-D5-007.
With “CCGCGGUUAGGGCUAGAAGUCGGGCGG (chemistry not given here) [191-D5-017]”, the “binding affinity in competitive pull-down binding assay vs. 191-D5-007” value is recorded as “reduced binding affinity”.

On to “CCCGGGUUAGGGCUAGAAGUCGGCGGG (chemistry not fully specified) [191-D5-029]”, for which the “binding affinity in competitive pull-down binding assay vs. 191-D5-007” value is “reduced binding affinity”.

As to “CGGCGGGUUAGGGCUAGAAGUCGGCGCCG (chemistry not fully specified) [191-D5-024-29a]”, the “binding affinity in competitive pull-down binding assay vs. 191-D5-007” value is on record as “identical binding affinity to SDF-1 as 191-D5-007”.

On to “GGCGGGUUAGGGCUAGAAGUCGGCGCC (chemistry not fully specified) [191-D5-024]”, for which the “binding affinity in competitive pull-down binding assay vs. 191-D5-007” value is on record as “reduced binding affinity”.

Turning to “CGCCGGGGUUAGGGCUAGAAGUCGGCCGGCG (chemistry not fully specified) [197-B2-006-31b]”, the “binding affinity in competitive pull-down binding assay vs. 191-D5-007” value is “the same as shown for 191-D5-007 and 197-B2-006”.

The same series, now with this note: reference 193-G2-001.
As for “GCGUGGUGUGAUCUAGAUGUAGUGGCUGAUCCUAGUUAGGUACGC (chemistry not fully specified) [193-D1-002]”, the “binding to human SDF-1 in comparison to 193-G2-001” value was “reduced binding”.

The same series, now with this note: vs. 192-A10-001 and 192-A10-008.
With “GCGCAAAGCAACAUGUCAAUGAAAGGUAGCGUGC (aptamer; chemistry not given here) [192-A10-017]”, the “binding affinity of derivatives of 192-A10-001 in competitive pull-down binding assay” value is listed as “weaker, much weaker or very much weaker binding affinity”.

For the substance “GAAAGCAACAUGUCAAUGAAAGGUAGCC (chemistry not fully specified) [192-A10-006]”, the “binding affinity of derivatives of 192-A10-001 in competitive pull-down binding assay” value is recorded as “reduced binding affinity”.

Turning to “UGAAAGCAACAUGUCAAUGAAAGGUAGCCG (chemistry not fully specified) [192-A10-005]”, the “binding affinity of derivatives of 192-A10-001 in competitive pull-down binding assay” value was “reduced binding affinity”.

As to “GCGGAAAGCAACAUGUCAAUGAAAGGUAGCCCGC (aptamer; chemistry not given here) [192-A10-014]”, the “binding affinity of derivatives of 192-A10-001 in competitive pull-down binding assay” value is “weaker, much weaker or very much weaker binding affinity”.

Turning to “GGCCAAAGCAACAUGUCAAUGAAAGGUAGCGGCC (aptamer; chemistry not given here) [192-A10-021]”, the “binding affinity of derivatives of 192-A10-001 in competitive pull-down binding assay” value is “weaker, much weaker or very much weaker binding affinity”.

With “GUGAAAGCAACAUGUCAAUGAAAGGUAGCCGC (chemistry not given here) [192-A10-004]”, the “binding affinity of derivatives of 192-A10-001 in competitive pull-down binding assay” value is given as “reduced binding affinity”.

“UGUGAAAGCAACAUGUCAAUGAAAGGUAGCCGCA (aptamer; chemistry not given here) [192-A10-003]”: the “binding affinity of derivatives of 192-A10-001 in competitive pull-down binding assay” value is reported as “reduced binding affinity”.

Consider “CCCCAAAGCAACAUGUCAAUGAAAGGUAGCGGGG (aptamer; chemistry not given here) [192-A10-023]”, for which the “binding affinity of derivatives of 192-A10-001 in competitive pull-down binding assay” value is reported as “weaker, much weaker or very much weaker binding affinity”.

The same series, now with this note: vs. 193-G2-001 and 193-G2-012.
With “GGGCGUGUGAUCUAGAUGUAUUGGCUGAUCCUAGUCAGGGCCC (chemistry not fully specified) [193-G2-015]”, the “binding affinity of derivatives of 193-G2-001 and 193-C2-001 in competitive pull-down binding assay” value is “reduced binding affinity”.

For “GCGCGGUGUGAUCUAGAUGUAUUGGCUGAUCCUAGUCAGGCGCGC (chemistry not fully specified) [193-G2-013]”, the “binding affinity of derivatives of 193-G2-001 and 193-C2-001 in competitive pull-down binding assay” value is “reduced binding affinity”.

Take “UGGUGUGAUCUAGAUGUAGUGGCUGAUCCUAGUCAGGUA (Made as D-RNA aptamer and L-RNA Spiegelmer, tested form not given here, further chemistry not given here) [193-C2-005]”: the “binding affinity of derivatives of 193-G2-001 and 193-C2-001 in competitive pull-down binding assay” value is on record as “reduced binding affinity”.

“GUGGUGUGAUCUAGAUGUAGUGGCUGAUCCUAGUCAGGUAC (chemistry not fully specified) [193-C2-004]”: the “binding affinity of derivatives of 193-G2-001 and 193-C2-001 in competitive pull-down binding assay” value is “reduced binding affinity”.

For “CGUGGUGUGAUCUAGAUGUAGUGGCUGAUCCUAGUCAGGUACG (chemistry not fully specified) [193-C2-003]”, the “binding affinity of derivatives of 193-G2-001 and 193-C2-001 in competitive pull-down binding assay” value is “reduced binding affinity”.

The series is the same for the next values; noted with them: vs. 197-B2 and 191-D5-007.
As to “GCGGGGGUUAGGGCUAGAAGUCGGCCUGC (chemistry not fully specified) [197-B2-005]”, the “binding affinity of truncated derivatives of 197-B2” value is reported as “without loss of binding affinity”.
